Laboratory results: PMC9146228, “Bioactivity of Novel Pyrazole-Thiazolines Scaffolds against Trypanosoma cruzi: Computational Approaches and 3D Spheroid Model on Drug Discovery for Chagas Disease” (Pharmaceutics, 2022)

test system: T. cruzi (Dm28c-Luc) trypomastigotes; test: microbe, parasite or virus in culture; format: cell-based, Trypanosoma cruzi; settings: Trypanosoma cruzi, 24 h, Dm28c-Luc, 24 h, mean ± SD; read-out: Trypanocidal Activity Trypomastigotes IC50
Description: The screening assays were performed with T. cruzi clone Dm28c (TcI) genetically modified to express luciferase gene (Dm28c-Luc), kindly provided by Dr. Cristina Henriques. Trypomastigotes were isolated from T. cruzi-infected Vero cell monolayers (10:1 parasites/host cell ratio). On the 4th day post-infection (dpi), free trypomastigotes in the culture supernatant were harvested, and the number of parasites/mL was quantified in a Neubauer chamber.
The trypanocidal activity of the pyrazole-thiazoline derivatives was evaluated against trypomastigote and intracellular amastigote forms of T. cruzi (Dm28c-Luc). Tissue-derived trypomastigotes (1 × 10^6 parasites/well) were incubated with pyrazole-thiazoline derivatives and Bz in different concentrations (0.41–100 µM) for 24 h at 37 °C in a humidified atmosphere and 5% CO2. The parasite viability was determined by the addition of luciferin (300 µg/mL), followed by luminescence detection on the GloMax microplate reader (Promega Corporation, Madison, WI, USA).
(§1) After 72 h of treatment, luciferin (300 µg/mL) was added to the culture, and the viability of the parasites was assessed by reading the luminescent signal on the GloMax reader (Promega Corporation, Madison, WI, USA). Controls were also performed in non-toxic concentrations of DMSO (≤ 1%). The concentration that reduces the number of viable parasites by 50% (IC50) or 90% (IC90) was calculated by linear regression. The selectivity index (SI) was calculated as CC50/IC50 for each parasite form.

SMILES | IC50
Clc1cc(Cl)cc(-n2cc(C3=NCCS3)cn2)c1 [Compound 2d, 2-(1-(3,5-dichlorophenyl)-1H-pyrazol-4-yl)-4,5-dihydrothiazole] | > 100 µM
Fc1ccc(-n2cc(C3=NCCS3)cn2)cc1 [Compound 2g, 2-(1-(4-fluorophenyl)-1H-pyrazol-4-yl)-4,5-dihydrothiazole] | 7.9 ± 1 µM
Nc1c(C2=NCCS2)cnn1-c1ccc(Cl)cc1 [Compound 1f, 2-(5-amino-1-(4-chlorophenyl)-1H-pyrazol-4-yl)-4,5-dihydrothiazole] | 88.3 ± 7.1 µM
Nc1c(C2=NCCS2)cnn1-c1cccc(F)c1 [Compound 1h, 2-(5-amino-1-(3-fluorophenyl)-1H-pyrazol-4-yl)-4,5-dihydrothiazole] | > 100 µM

same assay, conditions: Trypanosoma cruzi; Dm28c-Luc, 24 h, mean ± SD; read-out: Trypanocidal Activity Trypomastigotes IC90

SMILES | IC90
Clc1cc(Cl)cc(-n2cc(C3=NCCS3)cn2)c1 [Compound 2d, 2-(1-(3,5-dichlorophenyl)-1H-pyrazol-4-yl)-4,5-dihydrothiazole] | > 100 µM
Fc1ccc(-n2cc(C3=NCCS3)cn2)cc1 [Compound 2g, 2-(1-(4-fluorophenyl)-1H-pyrazol-4-yl)-4,5-dihydrothiazole] | 30.1 ± 2.8 µM
Nc1c(C2=NCCS2)cnn1-c1ccc(Cl)cc1 [Compound 1f, 2-(5-amino-1-(4-chlorophenyl)-1H-pyrazol-4-yl)-4,5-dihydrothiazole] | > 100 µM
Nc1c(C2=NCCS2)cnn1-c1cccc(F)c1 [Compound 1h, 2-(5-amino-1-(3-fluorophenyl)-1H-pyrazol-4-yl)-4,5-dihydrothiazole] | > 100 µM

same assay, conditions: selectivity index vs Vero cells

SMILES | Trypomastigotes SI (CC50 of Vero cells/IC50)
Clc1cc(Cl)cc(-n2cc(C3=NCCS3)cn2)c1 [Compound 2d, 2-(1-(3,5-dichlorophenyl)-1H-pyrazol-4-yl)-4,5-dihydrothiazole] | <5
Fc1ccc(-n2cc(C3=NCCS3)cn2)cc1 [Compound 2g, 2-(1-(4-fluorophenyl)-1H-pyrazol-4-yl)-4,5-dihydrothiazole] | 7.3
Nc1c(C2=NCCS2)cnn1-c1cccc(F)c1 [Compound 1h, 2-(5-amino-1-(3-fluorophenyl)-1H-pyrazol-4-yl)-4,5-dihydrothiazole] | <5

test system: T. cruzi (Dm28c-Luc) intracellular amastigotes; test: Trypanocidal activity against intracellular amastigotes in infected Vero cell monolayers; format: cell-based, Trypanosoma cruzi; settings: Trypanosoma cruzi, Vero, 72 h, Dm28c-Luc in Vero cells, 72 h, mean ± SD; read-out: Trypanocidal Activity Intracellular Amastigotes IC50
Description: The susceptibility of intracellular amastigotes to pyrazole-thiazoline derivatives (series 1 and 2) was evaluated using 24 h T. cruzi-infected Vero cell monolayers (10:1 parasite/host cell ratio). Then, the cultures were washed with PBS to remove non-internalized parasites, and 200 μL of fresh medium with a serial dilution of pyrazole-thiazoline derivatives and Bz (0.41–100 µM) was added for 72 h at 37 °C.
as §1

SMILES | IC50
Clc1cc(Cl)cc(-n2cc(C3=NCCS3)cn2)c1 [Compound 2d, 2-(1-(3,5-dichlorophenyl)-1H-pyrazol-4-yl)-4,5-dihydrothiazole] | > 100 µM
Fc1ccc(-n2cc(C3=NCCS3)cn2)cc1 [Compound 2g, 2-(1-(4-fluorophenyl)-1H-pyrazol-4-yl)-4,5-dihydrothiazole] | 14 ± 1.8 µM
Nc1c(C2=NCCS2)cnn1-c1ccc(Cl)cc1 [Compound 1f, 2-(5-amino-1-(4-chlorophenyl)-1H-pyrazol-4-yl)-4,5-dihydrothiazole] | > 100 µM
Nc1c(C2=NCCS2)cnn1-c1cccc(F)c1 [Compound 1h, 2-(5-amino-1-(3-fluorophenyl)-1H-pyrazol-4-yl)-4,5-dihydrothiazole] | > 100 µM

same assay, conditions: Trypanosoma cruzi, Vero, pIC50 = −log IC50, Dm28c-Luc clone; read-out: Intracellular Amastigotes pIC50 (converted)

SMILES | IC50
Clc1cc(Cl)cc(-n2cc(C3=NCCS3)cn2)c1 [Compound 2d, 2-(1-(3,5-dichlorophenyl)-1H-pyrazol-4-yl)-4,5-dihydrothiazole] | > 100 µM
Fc1ccc(-n2cc(C3=NCCS3)cn2)cc1 [Compound 2g, 2-(1-(4-fluorophenyl)-1H-pyrazol-4-yl)-4,5-dihydrothiazole] | 14.1 µM
Nc1c(C2=NCCS2)cnn1-c1ccc(Cl)cc1 [Compound 1f, 2-(5-amino-1-(4-chlorophenyl)-1H-pyrazol-4-yl)-4,5-dihydrothiazole] | > 100 µM
Nc1c(C2=NCCS2)cnn1-c1cccc(F)c1 [Compound 1h, 2-(5-amino-1-(3-fluorophenyl)-1H-pyrazol-4-yl)-4,5-dihydrothiazole] | > 100 µM

same assay, conditions: Trypanosoma cruzi; Dm28c-Luc in Vero cells, 72 h, mean ± SD; read-out: Trypanocidal Activity Intracellular Amastigotes IC90

SMILES | IC90
Clc1cc(Cl)cc(-n2cc(C3=NCCS3)cn2)c1 [Compound 2d, 2-(1-(3,5-dichlorophenyl)-1H-pyrazol-4-yl)-4,5-dihydrothiazole] | > 100 µM
Fc1ccc(-n2cc(C3=NCCS3)cn2)cc1 [Compound 2g, 2-(1-(4-fluorophenyl)-1H-pyrazol-4-yl)-4,5-dihydrothiazole] | 98 ± 3.4 µM
Nc1c(C2=NCCS2)cnn1-c1ccc(Cl)cc1 [Compound 1f, 2-(5-amino-1-(4-chlorophenyl)-1H-pyrazol-4-yl)-4,5-dihydrothiazole] | > 100 µM
Nc1c(C2=NCCS2)cnn1-c1cccc(F)c1 [Compound 1h, 2-(5-amino-1-(3-fluorophenyl)-1H-pyrazol-4-yl)-4,5-dihydrothiazole] | > 100 µM

same assay, conditions: selectivity index vs Vero cells

SMILES | Intracellular Amastigotes SI (CC50 of Vero cells/IC50)
Clc1cc(Cl)cc(-n2cc(C3=NCCS3)cn2)c1 [Compound 2d, 2-(1-(3,5-dichlorophenyl)-1H-pyrazol-4-yl)-4,5-dihydrothiazole] | <5
Fc1ccc(-n2cc(C3=NCCS3)cn2)cc1 [Compound 2g, 2-(1-(4-fluorophenyl)-1H-pyrazol-4-yl)-4,5-dihydrothiazole] | 4.18
Nc1c(C2=NCCS2)cnn1-c1cccc(F)c1 [Compound 1h, 2-(5-amino-1-(3-fluorophenyl)-1H-pyrazol-4-yl)-4,5-dihydrothiazole] | <5

test system: not listed separately; test: Cytotoxicity in vitro assay (CellTiter-Glo); format: cell-based; settings: African green monkey, Vero cells, mean ± SD
Description: Vero cells, obtained from the Rio de Janeiro Cell Bank (BCRJ code 0245), were dissociated with trypsin–EDTA solution (0.025%), and maintained in RPMI 1640 medium supplemented with 10% fetal bovine serum (FBS) at 37 °C in a humidified atmosphere of 5% CO2.
The compound toxicity was evaluated in Vero cell cultures. Briefly, Vero cells were seeded in 96-well white culture plates at a density of 1.5 × 10^4 cells/well for 24 h at 37 °C and 5% CO2. Thereafter, the cell monolayers were washed with phosphate-buffered saline (PBS) and 200 μL of fresh medium with a serial dilution of the pyrazole-thiazoline derivatives and Bz (1.9–500 µM) added. The cell viability was determined by luminescent assay using the CellTiter-Glo Kit (Promega Corporation, Madison, WI, USA) based on the ATP level. After 72 h of treatment, 20 μL of CellTiter-Glo solution was added per well, and cultures were kept for 2 min under agitation. The luminescent signal was read on the GloMax reader (Promega Corporation, Madison, WI, USA). The concentration of compounds that reduced 50% of cell viability (CC50) was calculated by linear regression. At least three independent assays were performed in duplicate.

SMILES | CC50 at 72 h
Clc1cc(Cl)cc(-n2cc(C3=NCCS3)cn2)c1 [Compound 2d, 2-(1-(3,5-dichlorophenyl)-1H-pyrazol-4-yl)-4,5-dihydrothiazole] | > 500 µM
Fc1ccc(-n2cc(C3=NCCS3)cn2)cc1 [Compound 2g, 2-(1-(4-fluorophenyl)-1H-pyrazol-4-yl)-4,5-dihydrothiazole] | 58.6 ± 8.11 µM
Nc1c(C2=NCCS2)cnn1-c1ccc(Cl)cc1 [Compound 1f, 2-(5-amino-1-(4-chlorophenyl)-1H-pyrazol-4-yl)-4,5-dihydrothiazole] | > 500 µM
Nc1c(C2=NCCS2)cnn1-c1cccc(F)c1 [Compound 1h, 2-(5-amino-1-(3-fluorophenyl)-1H-pyrazol-4-yl)-4,5-dihydrothiazole] | > 500 µM

test system: not given; test: not given; settings: not given

SMILES | melting point
Clc1cc(Cl)cc(-n2cc(C3=NCCS3)cn2)c1 [Compound 2d, 2-(1-(3,5-dichlorophenyl)-1H-pyrazol-4-yl)-4,5-dihydrothiazole] | 134 to 136 °C
Fc1ccc(-n2cc(C3=NCCS3)cn2)cc1 [Compound 2g, 2-(1-(4-fluorophenyl)-1H-pyrazol-4-yl)-4,5-dihydrothiazole] | 131 to 133 °C
Nc1c(C2=NCCS2)cnn1-c1ccc(Cl)cc1 [Compound 1f, 2-(5-amino-1-(4-chlorophenyl)-1H-pyrazol-4-yl)-4,5-dihydrothiazole] | 283 to 285 °C
Nc1c(C2=NCCS2)cnn1-c1cccc(F)c1 [Compound 1h, 2-(5-amino-1-(3-fluorophenyl)-1H-pyrazol-4-yl)-4,5-dihydrothiazole] | 230 to 232 °C
